Measured values published in ChEMBL document CHEMBL1697781, “Assessment of the health effects of chemicals in humans: II. Construction of an adverse effects database for QSAR modeling” (Curr Drug Discov Technol, 2004).

Legend:
Conditions in all cases: human; call rule not given here
Hepatotoxicity [1] = assay: FDA HLAED, lactate dehydrogenase (LDH) increase
Hepatotoxicity [2] = assay: FDA HLAED, liver enzyme composite activity
Hepatotoxicity [3] = assay: FDA HLAED, serum glutamic oxaloacetic transaminase (SGOT) increase
Hepatotoxicity [4] = assay: FDA HLAED, gamma-glutamyl transferase (GGT) increase
Hepatotoxicity [5] = assay: FDA HLAED, serum glutamic pyruvic transaminase (SGPT) increase
Hepatotoxicity [6] = assay: FDA HLAED, alkaline phosphatase increase
Wherever GGT Increase - Index Value is given: reference of the scale not given here.
Wherever LDH Increase - Index Value is given: reference of the scale not given here.

SMILES | LDH Increase - Activity Score (Hepatotoxicity [1]) | LDH Increase - Index Value (Hepatotoxicity [1]) | LDH Increase - Number of Reports (Hepatotoxicity [1]) | Composite Activity - Active (Hepatotoxicity [2]; Liver) | Composite Activity - Marginal (Hepatotoxicity [2]; Liver) | SGOT Increase - Activity Score (Hepatotoxicity [3]) | SGOT Increase - Index Value (Hepatotoxicity [3]) | SGOT Increase - Number of Reports (Hepatotoxicity [3]) | GGT Increase - Activity Score (Hepatotoxicity [4]) | GGT Increase - Index Value (Hepatotoxicity [4]) | GGT Increase - Number of Reports (Hepatotoxicity [4]) | SGPT Increase - Activity Score (Hepatotoxicity [5]) | SGPT Increase - Index Value (Hepatotoxicity [5]) | SGPT Increase - Number of Reports (Hepatotoxicity [5]) | Alkaline Phosphatase Increase - Activity Score (Hepatotoxicity [6]) | Alkaline Phosphatase Increase - Index Value (Hepatotoxicity [6]) | Alkaline Phosphatase Increase - Number of Reports (Hepatotoxicity [6]) | Composite Activity - Active (Hepatotoxicity [2]) | Composite Activity - Marginal (Hepatotoxicity [2]) | Composite Activity - Score (Hepatotoxicity [2]) | also measured
CC(C)(C(=O)O)c1ccc(C(O)CCCN2CCC(C(O)(c3ccccc3)c3ccccc3)CC2)cc1 (stereo not drawn) [FEXOFENADINE] | Inactive | 0 | < 4 | 0 | 0 | Inactive | 0 | < 4 | Inactive | 0 | < 4 | Inactive | 0 | < 4 | Inactive | 0 | < 4 | – | – | – | Composite Activity - Score (Hepatotoxicity [2]; Liver): Inactive
CC(C)(C)NC(=O)[C@H]1CC[C@H]2[C@@H]3CC[C@H]4NC(=O)C=C[C@]4(C)[C@H]3CC[C@]12C [FINASTERIDE] | Inactive | 1.1 | >= 4 | – | – | Inactive | 2.7 | >= 4 | Inactive | 1 | >= 4 | Inactive | 2.7 | >= 4 | Inactive | 2.5 | >= 4 | 0 | 0 | Inactive | –
O=C(NCC1CCCCN1)c1cc(OCC(F)(F)F)ccc1OCC(F)(F)F (stereo not drawn) [FLECAINIDE] | Marginally Active | 3.2 | >= 4 | – | – | Active | 9.6 | >= 4 | Inactive | 0 | < 4 | Active | 8.3 | >= 4 | Active | 8.3 | >= 4 | 3 | 1 | Active | –
Cn1cc([S+](C)[O-])c(=O)c2ccc(F)cc21 (stereo not drawn) [FLOSEQUINAN] | Active | 56.6 | >= 4 | – | – | Inactive | 28.3 | < 4 | Inactive | 0 | < 4 | Inactive | 28.3 | < 4 | Inactive | 14.1 | < 4 | 1 | 0 | Inactive | –
OC(Cn1cncn1)(Cn1cncn1)c1ccc(F)cc1F [FLUCONAZOLE] | Marginally Active | 3 | >= 4 | 4 | 1 | Active | 9.8 | >= 4 | Active | 4.2 | >= 4 | Active | 9.1 | >= 4 | Active | 8.4 | >= 4 | – | – | – | Composite Activity - Score (Hepatotoxicity [2]; Liver): Active
Nc1nc(F)nc2c1ncn2[C@@H]1O[C@H](CO)[C@@H](O)[C@@H]1O [FLUDARABINE] | Active | 18.3 | >= 4 | – | – | Active | 9.2 | >= 4 | Inactive | 0 | < 4 | Active | 10.7 | >= 4 | Active | 9.2 | >= 4 | 4 | 0 | Active | –
